From patent publication US20180118718A1, “Substituted Quinoxaline Derivatives” (Selvita S.A., priority 2015, published 2018)

Molecular target: T1, Human recombinant His-tagged PFKFB3 (Homo sapiens, UniProt Q16875)
T1 construct: His; made in house
Experiment: PFKFB3 IC50 Determination Assay (in vitro kinase assay, modified ADP-Glo system)
Type: biochemical
Details: ATP 20 μM and fructose-6-phosphate 2 μM (Km), 25 nM PFKFB3, 2 h, rt, ADP-Glo luminescence
Experimental: PFKFB3 IC50 Determination Assay
In vitro kinase assay used to determine IC50 values for tested inhibitors is based on a modified ADP-Glo™ system (Promega) and consists of two parts:
1. Kinase reaction—performed in optimized conditions. At this step PFKFB3 phosphorylates its substrate Fructose-6-phosphate using ATP as a source of phosphate to produce Fructose-2,6-bisphosphate and ADP. Reaction is performed at Km values for ATP and substrate using optimized buffer composition and time of the reaction. Human recombinant His-tagged PFKFB3 (PFKFB3 BATCH II SEC) with confirmed activity is produced and purified in-house. 2. Detection of ADP as a product of the reaction using ADP-Glo™ system. This part is conducted by using the commercially available kit ADP-Glo™ Kinase Assay (Promega, cat. No# V9103) according to manufacturer's instruction, modified by 5x dilutions of assay reagents (both ADP-Glo™ Reagent and Kinase Detection Solution).
Test compounds are dissolved in DMSO and then transferred to the V-bottom 96-well plate.
15 μL per well of Mix 1 is transferred to assay wells of 96-well white plate. […] Total reaction volume is 30 μL per well. Samples are tested in duplicates. Final concentration of DMSO in the reaction is 6.7%. Conditions needed for performing PFKFB3 (PFKFB3 BATCH II SEC) in vitro kinase assay are given below:
This protocol is based on Technical Bulletin, ADP-Glo™ Kinase Assay (Promega) and is adapted to 96-well plate containing 30 μL reaction mixture:
30 μL of 5x diluted ADP-Glo™ Reagent is added to each well of 96-well plate containing 30 μL of reaction mixture. The plate is incubated for 90 minutes on a shaker at RT. 60 μL of 5x diluted Kinase Detection Solution is added to each well of 96-well plate containing 60 μL of the solution (ratio of kinase reaction volume to ADP-Glo™ Reagent volume to Kinase Detection Solution volume is maintained at 1:1:2). Plate is incubated for 40 minutes on a shaker at RT, protected from light. Luminescence is measured in the plate reader Synergy 2 (BioTek).
Luminescent readouts for compounds tested in 10 concentrations (routinely from 100 μM to […], […] serial dilutions) in duplicates, as well as for positive control, are first normalized to no-substrate negative control by its subtraction. In the next step, % of normalized positive control is calculated for each data point and plotted against test compound concentration:
% of control percent of positive control normalized to no-substrate negative control Lumcpd luminescence of test compound Lumneg luminescence of no-substrate negative control Lumpos luminescence of positive control
IC50 parameter is determined by the GraphPad Prism 5.0 software [log(inhibitor) vs. response −Variable slope (four parameters)].

T1 sequence (Q16875 whole entry): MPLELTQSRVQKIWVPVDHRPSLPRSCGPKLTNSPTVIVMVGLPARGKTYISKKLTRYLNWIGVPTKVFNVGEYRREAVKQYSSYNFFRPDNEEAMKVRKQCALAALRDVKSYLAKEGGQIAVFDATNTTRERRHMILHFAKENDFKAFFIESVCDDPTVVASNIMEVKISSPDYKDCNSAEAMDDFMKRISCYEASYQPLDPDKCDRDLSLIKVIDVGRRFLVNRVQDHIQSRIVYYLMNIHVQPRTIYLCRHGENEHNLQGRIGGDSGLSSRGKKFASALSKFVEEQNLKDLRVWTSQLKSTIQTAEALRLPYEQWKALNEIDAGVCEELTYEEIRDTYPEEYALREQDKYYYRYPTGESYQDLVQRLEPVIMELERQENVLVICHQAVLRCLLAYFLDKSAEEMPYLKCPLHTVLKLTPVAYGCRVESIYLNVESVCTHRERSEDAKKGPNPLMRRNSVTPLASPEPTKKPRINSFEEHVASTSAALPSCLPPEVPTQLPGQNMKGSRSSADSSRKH

| Compound | IC50 [nM] |
| --- | --- |
| Cn1nccc1-c1ccc(S(C)(=O)=O)c(Nc2cc(-c3ccc4ccn(C)c4c3)c3nccnc3c2)c1 [Example 93, N-[2-Methanesulfonyl-5-(1-methyl-1H-pyrazol-5-yl)phenyl]-8-(1-methyl-1H-indol-6-yl)quinoxalin-6-amine] | 1000 to 10000 |
| Cn1ccc2ccc(-c3cc(N4CCc5ccncc54)cc4nccnc34)cc21 [Example 2, 5-(1-Methyl-1H-indol-6-yl)-7-{1H,2H,3H-pyrrolo[2,3-c]pyridin-1-yl}quinoxaline] | 1 to 1000 |
| CS(=O)(=O)c1ccncc1Nc1cc(-c2cccc(-c3cn[nH]n3)c2)c2nccnc2c1 [Example 48, N-(4-Methanesulfonylpyridin-3-yl)-8-[3-(1H-1,2,3-triazol-4-yl)phenyl]quinoxalin-6-amine] | 10000 to 100000 |
| Cc1cccc(-c2cc(Nc3cnccc3S(C)(=O)=O)cc3nccnc23)c1 [Example 51, N-(4-Methanesulfonylpyridin-3-yl)-8-(3-methylphenyl)quinoxalin-6-amine] | 1000 to 10000 |
| Cn1ccc2ccc(-c3cc(Nc4ncncc4S(C)(=O)=O)cc4nccnc34)cc21 [Example 27, N-(5-Methanesulfonylpyrimidin-4-yl)-8-(1-methyl-1H-indol-6-yl)quinoxalin-6-amine] | 1000 to 10000 |
| Cn1ccc2cc(-c3cc(N4CCc5ccncc54)cc4nccnc34)ccc21 [Example 34, 5-(1-Methyl-1H-indol-5-yl)-7-{1H,2H,3H-pyrrolo[2,3-c]pyridin-1-yl}quinoxaline] | 10000 to 100000 |
| Cn1ccc2ccc(-c3cc(Nc4cc([N+](=O)[O-])ccc4S(C)(=O)=O)cc4nccnc34)cc21 [Example 35, N-(2-Methanesulfonyl-5-nitrophenyl)-8-(1-methylindol-6-yl)quinoxalin-6-amine] | 1 to 1000 |
| Cc1csc2ccc(-c3cc(Nc4ccccc4S(=O)(=O)NC4CCN(C)C4)cc4nccnc34)cc12 (stereo not shown) [Example 199, 2-{[8-(3-Methyl-1-benzothiophen-5-yl)quinoxalin-6-yl]amino}-N-(1-methylpyrrolidin-3-yl)benzene-1-sulfonamide] | 1 to 1000 |
| CC(=O)N1CCN(c2ccncc2Nc2cc(-c3ccc4ccn(C)c4c3)c3nccnc3c2)CC1 [Example 82, 1-[4-(3-{[8-(1-Methyl-1H-indol-6-yl)quinoxalin-6-yl]amino}pyridin-4-yl)piperazin-1-yl]ethan-1-one] | 1 to 1000 |
| CS(=O)(=O)c1ccncc1Nc1cc(-c2ccc(N)c(F)c2)c2nccnc2c1 [Example 186, 8-(4-Amino-3-fluorophenyl)-N-(4-methanesulfonylpyridin-3-yl)quinoxalin-6-amine] | 1 to 1000 |
| CS(=O)(=O)c1ccncc1Nc1cc(-c2ccc(F)cc2)c2nccnc2c1 [Example 188, 8-(4-Fluorophenyl)-N-(4-methanesulfonylpyridin-3-yl)quinoxalin-6-amine] | 1 to 1000 |
| CCOc1cccc(-c2cc(Nc3cnccc3S(C)(=O)=O)cc3nccnc23)c1 [Example 129, 8-(3-Ethoxyphenyl)-N-(4-methanesulfonylpyridin-3-yl)quinoxalin-6-amine] | 10000 to 100000 |
| Cn1ccc2ccc(-c3cc(Nc4cnccc4Cl)cc4nccnc34)cc21 [Example 69, N-(4-Chloropyridin-3-yl)-8-(1-methyl-1H-indol-6-yl)quinoxalin-6-amine] | 1 to 1000 |
| CN1CCC(NC(=O)c2ccncc2Nc2cc(-c3ccc(Br)cc3)c3nccnc3c2)C1 (stereo not shown) [Example 215, 3-{[8-(4-Bromophenyl)quinoxalin-6-yl]amino}-N-(1-methylpyrrolidin-3-yl)pyridine-4-carboxamide] | 1 to 1000 |
| Cc1coc2ccc(-c3cc(Nc4cc([N+](=O)[O-])ccc4S(C)(=O)=O)cc4nccnc34)cc12 [Example 103, N-(2-methanesulfonyl-5-nitrophenyl)-8-(3-methyl-1-benzofuran-5-yl)quinoxalin-6-amine] | 1000 to 10000 |
| Cn1ccc2ccc(-c3cc(Nc4cnccc4C(=O)Nc4cccnc4)cc4nccnc34)cc21 [Example 207, 3-{[8-(1-Methyl-1H-indol-6-yl)quinoxalin-6-yl]amino}-N-(pyridin-3-yl)pyridine-4-carboxamide] | 1 to 1000 |
